Test system: Plasmodium berghei
Experiment: Luciferase/luciferin-expressing antifolate-resistant parasites were used to infect a culture of HepG2 cells that were pre-incubated with compounds. Infected hepatocytes emit light due to the luciferase reaction. Assay results are presented as the percent inhibition of light emission compared to control. […]
Format: functional
Settings: sporozoite; for IC90: read-out: LUCIFERASE INFECTION ASSAY - IC90
[1] = read-out: LUCIFERASE INFECTION ASSAY - IC50

Molecule `CN1CCN(c2ccc(Cl)cc2NC(=O)Nc2cc(Cl)ccc2N2CCN(C)CC2)CC1` has an IC50 (HEPG2TOX_HILL_SLOPE 4.19, HEPG2TOX_R_SQUARED 0.986, PBLUC_HILL_SLOPE 15.5, PBLUC_R_SQUARED 0.444, read-out: LUCIFERASE INFECTION ASSAY - IC50) of 3.09 µM and an IC90 of 3.56 µM.
With `O=C(c1ccco1)N(Cc1nccs1)c1ccc(-c2ccccc2)cc1` the IC50 [1] was over 9.16 µM and the IC90 was over 9.16 µM.
Molecule `CCn1c(SCc2nc3ccccc3c(=O)n2CC(N)=O)nnc1C1CC1` has an IC50 [1] of over 10 µM and an IC90 of over 10 µM.
In the case of `CC(C)(C)OC(=O)N1CCc2nc(NC(=O)c3ccc4nc[nH]c4c3)sc2C1`, the IC50 (HEPG2TOX_HILL_SLOPE 6.67, HEPG2TOX_R_SQUARED 0.917, read-out: LUCIFERASE INFECTION ASSAY - IC50) is reported as over 10 µM and the IC90 is reported as over 10 µM.
For `COC(=O)c1cc(C#N)c(S(C)(=O)=O)s1`, the IC50 (HEPG2TOX_HILL_SLOPE 3.75, HEPG2TOX_R_SQUARED 0.937, PBLUC_HILL_SLOPE 11, PBLUC_R_SQUARED 0.132, read-out: LUCIFERASE INFECTION ASSAY - IC50) was 12.1 µM and the IC90 was over 13.5 µM.
Work on `Fc1cccc(-n2ccnc2SCc2nc3ccccc3s2)c1` yielded an IC50 (PBLUC_HILL_SLOPE 1.97, PBLUC_R_SQUARED 0.394, read-out: LUCIFERASE INFECTION ASSAY - IC50) of 6.86 µM and an IC90 of over 10 µM.
`CCC(C)NC(=O)c1c(NC(=O)c2ccc(C)cc2)nc2ccc(C)cn12` (centres undefined) showed an IC50 (PBLUC_HILL_SLOPE 5.31, PBLUC_R_SQUARED 0.131, read-out: LUCIFERASE INFECTION ASSAY - IC50) of 5.08 µM and an IC90 of 7.69 µM.
Molecule `Cc1cc(C)c2nc(N(Cc3ccccc3)C(=O)c3nc(S(C)(=O)=O)ncc3Cl)sc2c1` has an IC50 (FFLUC_HILL_SLOPE 9.88, FFLUC_R_SQUARED 0.449, HEPG2TOX_HILL_SLOPE 6.61, HEPG2TOX_R_SQUARED 0.275, PBLUC_HILL_SLOPE 4.15, PBLUC_R_SQUARED 0.619, read-out: LUCIFERASE INFECTION ASSAY - IC50) of 6.34 µM and an IC90 of over 10 µM.
Work on `c1ccc(-c2cc3c(NCc4ccccc4CN4CCOCC4)ncnc3s2)cc1` yielded an IC50 [1] of over 10 µM and an IC90 of over 10 µM.
Molecule `Cc1cc(C(=O)Nc2nc3cc(C(F)(F)F)ccc3n2Cc2ccco2)c2c(C)noc2n1` has an IC50 (HEPG2TOX_HILL_SLOPE 1.6, HEPG2TOX_R_SQUARED 0.983, PBLUC_HILL_SLOPE 3.8, PBLUC_R_SQUARED 0.87, read-out: LUCIFERASE INFECTION ASSAY - IC50) of 1.82 µM and an IC90 of 3.24 µM.
With `CCOC(=O)/C=C/c1ccc(NC(=O)C2CCCN2c2ncnc3ccccc23)cc1` (centres undefined) the IC50 (HEPG2TOX_HILL_SLOPE 2.7, HEPG2TOX_R_SQUARED 0.523, PBLUC_HILL_SLOPE 3.32, PBLUC_R_SQUARED 0.679, read-out: LUCIFERASE INFECTION ASSAY - IC50) was 6.13 µM and the IC90 was over 10 µM.
`CC(C(=O)NCc1ccco1)c1ccc2c(c1)[nH]c1ccc(Cl)cc12` (centres undefined) gave an IC50 (PBLUC_HILL_SLOPE 15.7, PBLUC_R_SQUARED 0.128, read-out: LUCIFERASE INFECTION ASSAY - IC50) of over 9.35 µM and an IC90 of over 9.35 µM.
For `NC(Cc1ccc(F)cc1)c1csc(NC(=O)Nc2ccc(OC(F)(F)F)cc2)n1` (centres undefined), the IC50 (HEPG2TOX_HILL_SLOPE 9.82, HEPG2TOX_R_SQUARED 0.883, PBLUC_HILL_SLOPE 24.7, PBLUC_R_SQUARED 0.388, read-out: LUCIFERASE INFECTION ASSAY - IC50) was 5.2 µM and the IC90 was 5.69 µM.
Work on `O=C(CN1C(=O)CCOc2ccccc21)N1CCN(C(=O)C2COc3ccccc3O2)CC1` (centres undefined) yielded an IC50 [1] of 3.76 µM and an IC90 of 8.99 µM.
Work on `Cc1cc(NC(=O)C(C)Sc2ncnc3c2oc2ccccc23)no1` (centres undefined) yielded an IC50 (PBLUC_HILL_SLOPE 2.18, PBLUC_R_SQUARED 0.0347, read-out: LUCIFERASE INFECTION ASSAY - IC50) of over 10 µM and an IC90 of over 10 µM.
Work on `CC(=O)c1c(C)[nH]c(C(=O)Nc2nc(-c3ccc4c(c3)CCC4)cs2)c1C` yielded an IC50 [1] of 6.23 µM and an IC90 of over 10 µM.
In the case of `CN(CC(=O)Nc1ccc(Cl)c(Cl)c1)C(=O)C12CC3CC(CC(C3)C1)C2`, the IC50 [1] is reported as over 10 µM and the IC90 is reported as over 10 µM.
For `COc1ccc(NS(=O)(=O)c2cc(NCc3ccccc3C)cc(C(=O)NCCN(C)C)c2)cc1`, the IC50 (HEPG2TOX_HILL_SLOPE 13.2, HEPG2TOX_R_SQUARED 0.729, PBLUC_HILL_SLOPE 3.39, PBLUC_R_SQUARED 0.479, read-out: LUCIFERASE INFECTION ASSAY - IC50) was 4.55 µM and the IC90 was over 6.64 µM.
`Clc1cccc(Sc2ccc(-c3ccccn3)s2)c1` gave an IC50 [1] of over 10.9 µM and an IC90 of over 10.9 µM.
Molecule `O=C(NC1=C(Nc2ccc3c(c2)OCCO3)C(=O)c2ccccc2C1=O)c1ccc(Cl)cc1` has an IC50 (FFLUC_HILL_SLOPE 16.8, FFLUC_R_SQUARED 0.568, PBLUC_HILL_SLOPE 3.91, PBLUC_R_SQUARED 0.215, read-out: LUCIFERASE INFECTION ASSAY - IC50) of 6.65 µM and an IC90 of over 10 µM.
In the case of `O=C(NC1CCN(Cc2ccccc2)CC1)c1oc2ccccc2c1COc1ccccc1`, the IC50 (PBLUC_HILL_SLOPE 25.1, PBLUC_R_SQUARED 0.225, read-out: LUCIFERASE INFECTION ASSAY - IC50) is reported as over 10 µM and the IC90 is reported as over 10 µM.
With `O=C(NC1CCCc2ccccc21)c1ccc2c(c1)S(=O)(=O)c1ccccc1C2=O` (centres undefined) the IC50 (HEPG2TOX_HILL_SLOPE 1, HEPG2TOX_R_SQUARED 0.0756, read-out: LUCIFERASE INFECTION ASSAY - IC50) was over 10 µM and the IC90 was over 10 µM.
`Cc1cc(C(=O)OCC(=O)N(CCC#N)c2ccc(F)cc2)c2ccccc2n1` was tested, and the IC50 [1] was over 10 µM and the IC90 was over 10 µM.
`O=C(Nc1cccc([N+](=O)[O-])c1)NC1CCSc2ccc(F)cc21` (centres undefined) was tested, and the IC50 [1] was 3.86 µM and the IC90 was 4.49 µM.
`COC(CNC(=S)c1c(-c2ccc(Cl)cc2)c2c3n(c(-c4cccc(S(=O)(=O)N5CCOCC5)c4)nn13)CCCC2)OC` was tested, and the IC50 (FFLUC_HILL_SLOPE 2.83, FFLUC_R_SQUARED 0.688, HEPG2TOX_HILL_SLOPE 16.1, HEPG2TOX_R_SQUARED 0.632, PBLUC_HILL_SLOPE 13, PBLUC_R_SQUARED 0.649, read-out: LUCIFERASE INFECTION ASSAY - IC50) was 0.383 µM and the IC90 was 0.453 µM.
Work on `O=c1c2ccccc2c(-c2ccc(F)cc2F)nn1-c1ccccc1` yielded an IC50 [1] of over 9.87 µM and an IC90 of over 9.87 µM.
For `CCOc1ccc(N2CC(C(=O)N3CCCC(c4nc(C)no4)C3)CC2=O)cc1` (centres undefined), the IC50 [1] was over 10 µM and the IC90 was over 10 µM.
With `Fc1ccc(-c2c[n+](-c3ccccc3)c3n2CCCS3)cc1` the IC50 [1] was over 10 µM and the IC90 was over 10 µM.
`CC(C)c1ccc(C2C3CCc4ccccc4C3=NN2CCO)cc1` (centres undefined) was tested, and the IC50 (PBLUC_HILL_SLOPE 1.49, PBLUC_R_SQUARED 0.685, read-out: LUCIFERASE INFECTION ASSAY - IC50) was 0.301 µM and the IC90 was 1.32 µM.
`CN1CCN(c2nc(-c3c(-c4ccc(F)cc4)[nH]c4ccccc34)cs2)CC1` was tested, and the IC50 [1] was over 10 µM and the IC90 was over 10 µM.
In the case of `Clc1ccccc1/C=N/Nc1nc(-c2cc(-c3ccccc3)no2)cs1`, the IC50 (PBLUC_HILL_SLOPE 1.1, PBLUC_R_SQUARED 0.687, read-out: LUCIFERASE INFECTION ASSAY - IC50) is reported as 6.48 µM and the IC90 is reported as over 8.66 µM.
Work on `CN(CC1COc2ccccc2O1)c1ccc(C#N)cn1` (centres undefined) yielded an IC50 (HEPG2TOX_HILL_SLOPE 3.52, HEPG2TOX_R_SQUARED 0.623, PBLUC_HILL_SLOPE 1.89, PBLUC_R_SQUARED 0.914, read-out: LUCIFERASE INFECTION ASSAY - IC50) of 5.89 µM and an IC90 of over 10 µM.
`CCNC(=O)c1nn(CC2CC2)c2c1CN(C(=O)c1cc(-c3ccccc3F)n[nH]1)CC2` showed an IC50 (PBLUC_HILL_SLOPE 5.13, PBLUC_R_SQUARED 0.551, read-out: LUCIFERASE INFECTION ASSAY - IC50) of 2.65 µM and an IC90 of 4.07 µM.
In the case of `COc1cccc(-c2cn3c(-c4ccc(CO)cc4)cnc3cn2)c1F`, the IC50 [1] is reported as 8.82 µM and the IC90 is reported as over 9.45 µM.
`O=C(/C=C/c1ccco1)Nc1ccc(Cl)c(Cl)c1` was tested, and the IC50 (HEPG2TOX_HILL_SLOPE 2.91, HEPG2TOX_R_SQUARED 0.987, PBLUC_HILL_SLOPE 6.61, PBLUC_R_SQUARED 0.512, read-out: LUCIFERASE INFECTION ASSAY - IC50) was 8.1 µM and the IC90 was 11.3 µM.
In the case of `CCOC(=O)c1sc2nc(C)nc(N(C)Cc3ccccc3)c2c1C`, the IC50 (PBLUC_HILL_SLOPE 1.75, PBLUC_R_SQUARED 0.422, read-out: LUCIFERASE INFECTION ASSAY - IC50) is reported as 7.96 µM and the IC90 is reported as over 10 µM.
`CN(Cc1ccc(C(=O)NC2CC2)cc1)S(=O)(=O)c1ccc(Br)s1` showed an IC50 (PBLUC_HILL_SLOPE 16.6, PBLUC_R_SQUARED 0.228, read-out: LUCIFERASE INFECTION ASSAY - IC50) of 8.37 µM and an IC90 of 9.55 µM.
Work on `O=C(CCCc1cccs1)Nc1nnc[nH]1` yielded an IC50 (PBLUC_HILL_SLOPE 0.436, PBLUC_R_SQUARED 0.0408, read-out: LUCIFERASE INFECTION ASSAY - IC50) of over 10 µM and an IC90 of over 10 µM.
Molecule `COc1ccccc1NC(=S)N/N=C/c1ccc(N2CCOCC2)cc1` has an IC50 (PBLUC_HILL_SLOPE 0.342, PBLUC_R_SQUARED 0.162, read-out: LUCIFERASE INFECTION ASSAY - IC50) of 1.98 µM and an IC90 of over 10 µM.
For `O=C(NN=c1nc[nH]c2ccccc12)c1c(O)c(O)cc2ccccc12`, the IC50 (HEPG2TOX_HILL_SLOPE 1.23, 1.37, HEPG2TOX_R_SQUARED 0.873, 0.334, PBLUC_HILL_SLOPE 12.1, 7.99, PBLUC_R_SQUARED 0.334, 0.684, read-out: LUCIFERASE INFECTION ASSAY - IC50) was 1.07 µM and the IC90 was 1.34 µM.
Molecule `CCC(C)c1ccc(-n2c(=O)c3ccccc3n3c(SCCc4ccncc4)nnc23)cc1` (centres undefined) has an IC50 (PBLUC_HILL_SLOPE 14.1, 1.41, PBLUC_R_SQUARED 0.703, 0.467, read-out: LUCIFERASE INFECTION ASSAY - IC50) of 5.1 µM and an IC90 of 9.16 µM.
For `CCc1ccc(NC(=O)COc2c(Cl)cc(Cl)c3ccc(C)nc23)cc1`, the IC50 (HEPG2TOX_HILL_SLOPE 1.5, HEPG2TOX_R_SQUARED 0.996, PBLUC_HILL_SLOPE 3.18, PBLUC_R_SQUARED 0.331, read-out: LUCIFERASE INFECTION ASSAY - IC50) was 0.657 µM and the IC90 was 1.31 µM.

Source: ChEMBL document CHEMBL4483862, “Open-source discovery of chemical leads for next-generation chemoprotective antimalarials” (2018)
